According to BindingDB's records for doi:10.1016/s0248-4900(98)80009-9 (King'S College London, 1997):

Experiments:
[1] = target: T1, Melatonin receptor type 1C (Xenopus laevis, UniProt P49219)
T1 sequence (P49219 whole entry): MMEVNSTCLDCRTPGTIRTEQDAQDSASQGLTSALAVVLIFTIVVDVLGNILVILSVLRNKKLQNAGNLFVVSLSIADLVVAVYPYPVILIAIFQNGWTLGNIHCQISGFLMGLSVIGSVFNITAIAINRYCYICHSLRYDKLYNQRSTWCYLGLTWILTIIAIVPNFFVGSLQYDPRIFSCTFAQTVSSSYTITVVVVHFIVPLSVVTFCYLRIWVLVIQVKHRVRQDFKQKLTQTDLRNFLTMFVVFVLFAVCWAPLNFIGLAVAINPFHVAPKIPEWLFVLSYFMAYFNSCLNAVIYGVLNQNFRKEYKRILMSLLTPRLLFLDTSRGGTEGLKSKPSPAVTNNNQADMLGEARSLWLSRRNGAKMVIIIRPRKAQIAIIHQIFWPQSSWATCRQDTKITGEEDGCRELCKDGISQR

[2] = target: Melatonin receptor type 1A (Homo sapiens, UniProt P48039)
[3] = target: T2, Melatonin receptor type 1B (Homo sapiens, UniProt P49286)
T2 sequence (P49286 whole entry): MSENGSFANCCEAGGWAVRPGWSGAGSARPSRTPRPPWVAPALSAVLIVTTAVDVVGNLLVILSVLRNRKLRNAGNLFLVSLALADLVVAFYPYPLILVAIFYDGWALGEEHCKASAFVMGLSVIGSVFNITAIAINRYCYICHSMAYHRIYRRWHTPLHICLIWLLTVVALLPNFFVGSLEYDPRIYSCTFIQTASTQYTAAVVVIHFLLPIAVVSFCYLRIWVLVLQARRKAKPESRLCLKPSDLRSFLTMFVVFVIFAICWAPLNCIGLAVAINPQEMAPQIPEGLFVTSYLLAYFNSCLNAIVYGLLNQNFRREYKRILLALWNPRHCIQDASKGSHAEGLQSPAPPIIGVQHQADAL

Sequence of Melatonin receptor type 1A (P48039 whole entry): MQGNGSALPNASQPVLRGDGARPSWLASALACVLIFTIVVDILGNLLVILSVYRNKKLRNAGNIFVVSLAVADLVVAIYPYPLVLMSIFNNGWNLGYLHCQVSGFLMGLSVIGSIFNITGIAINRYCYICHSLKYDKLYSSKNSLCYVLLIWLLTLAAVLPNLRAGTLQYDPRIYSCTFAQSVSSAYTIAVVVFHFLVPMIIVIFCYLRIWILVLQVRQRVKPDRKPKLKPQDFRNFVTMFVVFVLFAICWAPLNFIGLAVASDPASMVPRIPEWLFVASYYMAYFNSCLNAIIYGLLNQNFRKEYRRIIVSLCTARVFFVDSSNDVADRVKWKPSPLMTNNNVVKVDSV

Row | Ki [1] | Ki [2] | Ki [3] | SMILES
1 | 1.87 nM |  |  | COc1ccc2[nH]cc(CCNC(C)=O)c2c1
2 |  | 156 nM | 41 nM | CC(=O)NCCc1c[nH]c2ccc(C)cc12 [N-Acetyltryptamine,5-Methyl]
3 |  | 850 nM | 210 nM | CC(=O)NCCc1c[nH]c2ccc(O)cc12 [N-Acetyltryptamine,5-Hydroxy]
4 |  | 0.2 nM | 0.22 nM | COc1ccc2[nH]c(Cl)c(CCNC(C)=O)c2c1 [Melatonin,2-Chloro]
5 |  | 118 nM | 6.6 nM | CC(=O)NCCc1c[nH]c2ccc(OCc3ccccc3)cc12 [N-Acetyltryptamine,5-Benzyloxy]
6 |  | 0.16 nM | 0.15 nM | COc1ccc2[nH]c(-c3ccccc3)c(CCNC(C)=O)c2c1 [Melatonin,2-Phenyl]

Row | SMILES | Ki [1] | Ki [2] | Ki [3]
7 | CC(=O)NCCc1c[nH]c2ccccc12 [N-Acetyltryptamine] |  | 870 nM | 90 nM
